One assay addresses T1, CK2 kinase (Homo sapiens, UniProt P68400).
T1 construct: purchased New England Biolabs (NEB)
Put plainly: Kinase-catalyzed photocrosslinking with peptide substrate Rho-14, in-gel fluorescence. The assay is classed as biochemical. The note with it: Rho-14 200 μM, co-substrate 1.3 mM, 365 nm UV 2 hours at 30° C.

A further assay has as its target T2, CK2 and α-casein (Homo sapiens, UniProt P68400).
T2 construct: purchased New England Biolabs (NEB)
The experiment in a line: Kinase-catalyzed photocrosslinking with full-length α-casein, SDS-PAGE, coomassie and CK2 western blot. The class given is biochemical. The following applies: α-casein 100 μM, co-substrate 1.3 mM, 365 nm UV; CK2 immunoblot. As for the experimental part: Having established phosphorylation-dependent crosslinking between kinase and peptide substrate, crosslinking with a full-length protein substrate was tested. The α-casein protein has been widely used as a model CK2 substrate in phosphoprotein analysis. Crosslinking was carried out by incubating a mixture of CK2 and α-casein with ATP-ArN3 in the presence of UV light. The products were separated by SDS-PAGE and analyzed by coomassie staining (FIG. 3a) and western blot analysis (FIG. 3b). […] Because phosphate transfer is required, a powerful feature of ATP-ArN3-mediated crosslinking is that a kinase substrate is necessarily present in the crosslinked product. Coupled with mass spectrometric analysis, phosphorylation-dependent kinase-substrate crosslinking can determine the sites of phosphorylation in addition to the effector kinase. Importantly, the crosslinking approach is appropriate for studies with cell lysates or homogenized tissue samples since natural kinase and substrate are utilized. […] The reaction products were separated by SDS-PAGE and visualized by coomassie staining, silver staining, in-gel fluorescence imaging, or western blotting with a CK2 antibody (Millipore) after transfer onto a PVDF membrane (Immobilon-PSQ, Millipore). […] The reaction mixtures were incubated for 2 hours at 30° C. before quantitative MALDI-TOF MS analysis (Bruker Daltonics), as previously described. […]

T2 sequence (P68400 whole entry): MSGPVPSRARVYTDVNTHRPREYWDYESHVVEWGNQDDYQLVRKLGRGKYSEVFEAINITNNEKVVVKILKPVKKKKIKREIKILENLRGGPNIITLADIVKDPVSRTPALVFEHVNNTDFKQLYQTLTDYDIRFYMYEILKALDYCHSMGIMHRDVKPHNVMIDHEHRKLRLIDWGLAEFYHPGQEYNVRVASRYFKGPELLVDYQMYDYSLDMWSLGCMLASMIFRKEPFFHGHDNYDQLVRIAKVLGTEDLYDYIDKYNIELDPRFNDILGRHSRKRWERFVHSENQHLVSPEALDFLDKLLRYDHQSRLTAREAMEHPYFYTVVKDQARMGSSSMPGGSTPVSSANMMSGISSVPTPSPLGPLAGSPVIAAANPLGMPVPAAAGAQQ
T2 sequence (P67870 whole entry partner): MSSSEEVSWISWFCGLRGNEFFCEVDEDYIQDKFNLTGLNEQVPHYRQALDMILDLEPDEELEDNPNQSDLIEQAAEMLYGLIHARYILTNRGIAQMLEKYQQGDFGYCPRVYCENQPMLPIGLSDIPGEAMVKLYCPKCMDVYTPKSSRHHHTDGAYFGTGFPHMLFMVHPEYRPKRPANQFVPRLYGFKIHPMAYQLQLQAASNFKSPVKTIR
T1 sequence (P68400 whole entry): as the sequence (P68400 whole entry) above
T1 sequence (P67870 whole entry partner): as the sequence (P67870 whole entry partner) above
Method for CK2 kinase: Crosslinking was tested by incubating CK2 kinase and ATP-ArN3 with rhodamine-labeled CK2 peptide substrate 14 (Rho-[sequence], Rho-14). Simultaneously, the reaction mixture was irradiated with 365 nm light to afford a covalent crosslink (FIG. 1c). If kinase-substrate crosslinking occurred, the kinase was expected to become fluorescently labeled, which would be visualized by gel electrophoresis. […] As a final critical control, the crosslinked product was treated with acid to cleave the phosphoramidate bond bridging the peptide and kinase (FIG. 1c).
Photocrosslinking was initiated by irradiating with a handheld UV lamp at 365 nm for 2 hours at 30° C. The phosphoramidate bond in the crosslinked products was cleaved by adding trifluoroacetic acid (TFA) to a final concentration of 50% and incubating at 16° C. for 3 hours. The reaction products were separated by SDS-PAGE and visualized by coomassie staining, silver staining, in-gel fluorescence imaging, or western blotting with a CK2 antibody (Millipore) after transfer onto a PVDF membrane (Immobilon-PSQ, Millipore).
For the photocrosslinking experiments, CK2 (50 units/μL, 0.7 μM) was incubated with either Rho-14 (200 μM,) or full length α-casein (100 μM, Sigma), while Abl (20 units/μL, 44.4 nM) was incubated with ROX-13 (200 μM). All reactions also contained ATP or ATP-ArN3 (1.3 mM) and the manufacturers' kinase buffer.

Consider `Nc1ncnc2c1ncn2[C@@H]1O[C@H](COP(=O)(O)OP(=O)(O)OP(=O)(O)O)[C@@H](O)[C@H]1O` [ATP, Adenosine 5′-triphosphate], for which, on CK2 kinase, the “fluorophore labeling of CK2 (kinase-substrate crosslinking)” value is reported as “no fluorescence labeling was observed”. Further, on CK2 and α-casein, the “CK2-α-casein crosslinked complex (68 kDa) formation” value is on record as “crosslinked complex was absent”.
